Patent publication US11912718B2, “Solid forms of a thienopyrimidinedione ACC inhibitor and methods for production thereof” (Gilead Apollo, LLC, priority 2016, dated 2024)

Assays:
[1] = Study A: single oral dose pharmacokinetics in healthy subjects; type: in vivo, human; conditions: for AUC(0-t) / Tmax / AUC(0-inf) / Cmax / half-life: human, plasma, fasted; for AUC(0-t): po; for AUC(0-t) / AUC(0-inf) / Cmax / half-life: mean ± SD; for Tmax: Mean (Min, Max)
Description: Study A evaluated the safety and tolerability of 30, 80, 200, 500, 800, and 1000 mg in the fasted state and 200 mg following a high fat meal (fed state) to cohorts of 8 healthy subjects (6 active and 2 placebo control per group).
Table 12 summarizes PK parameters (mean) under fasted conditions of Study A. The reported factors may vary up to about 2%.

[2] = Study B: multiple oral dose pharmacokinetics, 10 days; type: in vivo, human; conditions: for AUC(0-inf) / Cmax / half-life / Tmax / AUC(0-t): human, in vivo, oral
Description: Study B (five (5) cohorts of 8 subjects (6 active and 2 placebo)) evaluated 50 mg twice daily (BID) (100 mg daily), 100 mg once daily (QD) (100 mg daily), 100 mg BID (200 mg daily), 200 mg QD (200 mg daily), or 150 mg QD (150 mg daily), or matching placebo. Subjects received multiple oral doses of Compound 1 or placebo for 9 consecutive days, with a single oral dose of Compound 1 or placebo on the morning of Day 10. Doses were administered approximately 30 minutes after meals.
Table 13 summarizes PK parameters of Study B after 10 days. The reported factors may vary up to about 2%.

[3] = 100 mg, 100 mg BID, Day 1, value available for one subject

Question: What does the source list for `COc1ccccc1[C@H](Cn1c(=O)n(C(C)(C)C(=O)O)c(=O)c2c(C)c(-c3ncco3)sc21)OC1CCOCC1` [Compound 1, (R)-2-(1-(2-(2-methoxyphenyl)-2-((tetrahydro-2H-pyran-4-yl)oxy)ethyl)-5-methyl-6-(oxazol-2-yl)-2,4-dioxo-1,2-dihydrothieno[2,3-d]pyrimidin-3(4H)-yl)-2-methylpropanoic acid]?
Answer: maximum plasma exposure (Cmax) lower under fed compared to fasted conditions ([1]; 200 mg, fed (high fat meal) versus fasted): approximately 68%; mean t1/2, CL/F, Vz/F and median tmax, fed versus fasted ([1]; 200 mg, fed and fasted conditions): comparable; AUC(0-t) ([1]; 30 mg, single oral dose 30 mg, read-out: AUC0-t): 176 ± 104 ng·h/mL; AUC(0-t) ([1]; 80 mg, single oral dose 80 mg, read-out: AUC0-12): 395 ± 198 ng·h/mL; AUC(0-t) ([1]; 80 mg, single oral dose 80 mg, read-out: AUC0-t): 363 ± 215 ng·h/mL; AUC(0-t) ([1]; 200 mg, single oral dose 200 mg, read-out: AUC0-12): 1000 ± 545 ng·h/mL; AUC(0-t) ([1]; 200 mg, single oral dose 200 mg, read-out: AUC0-t): 1210 ± 536 ng·h/mL; AUC(0-t) ([1]; 500 mg, single oral dose 500 mg, read-out: AUC0-12): 1240 ± 547 ng·h/mL; AUC(0-t) ([1]; 500 mg, single oral dose 500 mg, read-out: AUC0-t): 2930 ± 2440 ng·h/mL; AUC(0-t) ([1]; 800 mg, single oral dose 800 mg, read-out: AUC0-t): 6420 ± 3180 ng·h/mL; AUC(0-t) ([1]; 1000 mg, single oral dose 1000 mg, read-out: AUC0-t): 17400 ± 8400 ng·h/mL; Tmax ([1]; single oral dose 30 mg): 1.3 h; AUC(0-inf) ([1]; single oral dose 30 mg): 179 ± 115 ng·h/mL; Cmax ([1]; single oral dose 30 mg): 80 ± 66 ng/mL; half-life ([1]; single oral dose 30 mg): 4.5 ± 1.6 h; Tmax ([1]; single oral dose 80 mg): 1.8 h; AUC(0-inf) ([1]; single oral dose 80 mg): 402 ± 225 ng·h/mL; Cmax ([1]; single oral dose 80 mg): 101 ± 48 ng/mL; half-life ([1]; single oral dose 80 mg): 7 ± 2.8 h; Tmax ([1]; single oral dose 200 mg): 1.9 h; AUC(0-inf) ([1]; single oral dose 200 mg): 1250 ± 616 ng·h/mL; Cmax ([1]; single oral dose 200 mg): 416 ± 22 ng/mL; half-life ([1]; single oral dose 200 mg): 12 ± 1.4 h; Tmax ([1]; single oral dose 500 mg): 1.9 h; AUC(0-inf) ([1]; single oral dose 500 mg): 2960 ± 2460 ng·h/mL; Cmax ([1]; single oral dose 500 mg): 1110 ± 1150 ng/mL; half-life ([1]; single oral dose 500 mg): 10.2 ± 2.1 h; Tmax ([1]; single oral dose 800 mg): 2.1 h; AUC(0-inf) ([1]; single oral dose 800 mg): 6460 ± 3190 ng·h/mL; Cmax ([1]; single oral dose 800 mg): 2570 ± 1880 ng/mL; half-life ([1]; single oral dose 800 mg): 8.2 ± 3.3 h; Tmax ([1]; single oral dose 1000 mg): 2.4 h; AUC(0-inf) ([1]; single oral dose 1000 mg): 17500 ± 8410 ng·h/mL; Cmax ([1]; single oral dose 1000 mg): 8380 ± 3210 ng/mL; half-life ([1]; single oral dose 1000 mg): 9.5 ± 2.6 h; AUC(0-inf) ([2]; 50 mg, 50 mg BID, Day 1): 178 ± 41 ng·h/mL; Cmax ([2]; 50 mg, 50 mg BID, Day 1): 41 ± 14 ng/mL; half-life ([2]; 50 mg, 50 mg BID, Day 1): 3.5 ± 1.6 h; Tmax ([2]; 50 mg, 50 mg BID, Day 1, Mean (Min, Max)): 2.4 h; AUC(0-t) ([2]; 50 mg, 50 mg BID, Day 1, read-out: AUC0-12): 143 ± 29 ng·h/mL; AUC(0-t) ([2]; 50 mg, 50 mg BID, Day 1, read-out: AUC0-t): 143 ± 29 ng·h/mL; half-life ([2]; 50 mg, 50 mg BID, Day 10): 10.3 ± 6.7 h; AUC(0-t) ([2]; 50 mg, 50 mg BID, Day 10, read-out: AUC0-t): 403 ± 104 ng·h/mL; Cmax ([2]; 50 mg, 50 mg BID, Day 10 steady state): 49 ± 15 ng/mL; Tmax ([2]; 50 mg, 50 mg BID, Day 10 steady state, Mean (Min, Max)): 4.5 h; Cmax ([2]; 100 mg, 100 mg BID, Day 1): 61.6 ± 15 ng/mL; Tmax ([2]; 100 mg, 100 mg BID, Day 1, Mean (Min, Max)): 5.2 h; AUC(0-t) ([2]; 100 mg, 100 mg BID, Day 1, read-out: AUC0-12): 345 ± 78 ng·h/mL; AUC(0-t) ([2]; 100 mg, 100 mg BID, Day 1, read-out: AUC0-t): 345 ± 77 ng·h/mL; AUC(0-inf) [2, 3]: 671 ng·h/mL; half-life [2, 3]: 5.6 h; half-life ([2]; 100 mg, 100 mg BID, Day 10): 6.8 ± 1.6 h; AUC(0-t) ([2]; 100 mg, 100 mg BID, Day 10, read-out: AUC0-t): 1120 ± 362 ng·h/mL; Cmax ([2]; 100 mg, 100 mg BID, Day 10 steady state): 121 ± 56 ng/mL; Tmax ([2]; 100 mg, 100 mg BID, Day 10 steady state, Mean (Min, Max)): 5.2 h; AUC(0-inf) ([2]; 100 mg, 100 mg QD, Day 1): 278 ± 110 ng·h/mL; Cmax ([2]; 100 mg, 100 mg QD, Day 1): 65 ± 32 ng/mL; half-life ([2]; 100 mg, 100 mg QD, Day 1): 4.3 ± 0.7 h; AUC(0-t) ([2]; 100 mg, 100 mg QD, Day 1, read-out: AUC0-12): 234 ± 86 ng·h/mL; AUC(0-t) ([2]; 100 mg, 100 mg QD, Day 1, read-out: AUC0-t): 268 ± 96 ng·h/mL; half-life ([2]; 100 mg, 100 mg QD, Day 10): 7.9 ± 4.5 h; AUC(0-t) ([2]; 100 mg, 100 mg QD, Day 10, read-out: AUC0-12): 285 ± 115 ng·h/mL; AUC(0-t) ([2]; 100 mg, 100 mg QD, Day 10, read-out: AUC0-t): 400 ± 181 ng·h/mL; Cmax ([2]; 100 mg, 100 mg QD, Day 10 steady state): 54 ± 22 ng/mL; Tmax ([2]; 100 mg, 100 mg QD, Day 10 steady state, Mean (Min, Max)): 4.5 h; AUC(0-inf) ([2]; 150 mg, 150 mg QD, Day 1): 587 ± 254 ng·h/mL; Cmax ([2]; 150 mg, 150 mg QD, Day 1): 94 ± 40 ng/mL; half-life ([2]; 150 mg, 150 mg QD, Day 1): 3.9 ± 1.1 h; Tmax ([2]; 150 mg, 150 mg QD, Day 1, Mean (Min, Max)): 3.3 h; AUC(0-t) ([2]; 150 mg, 150 mg QD, Day 1, read-out: AUC0-12): 489 ± 218 ng·h/mL; AUC(0-t) ([2]; 150 mg, 150 mg QD, Day 1, read-out: AUC0-t): 572 ± 247 ng·h/mL; half-life ([2]; 150 mg, 150 mg QD, Day 10): 6.6 ± 2.8 h; AUC(0-t) ([2]; 150 mg, 150 mg QD, Day 10, read-out: AUC0-12): 637 ± 246 ng·h/mL; AUC(0-t) ([2]; 150 mg, 150 mg QD, Day 10, read-out: AUC0-t): 933 ± 424 ng·h/mL; Cmax ([2]; 150 mg, 150 mg QD, Day 10 steady state): 111 ± 52 ng/mL; Tmax ([2]; 150 mg, 150 mg QD, Day 10 steady state, Mean (Min, Max)): 6.5 h; AUC(0-inf) ([2]; 200 mg, 200 mg QD, Day 1): 979 ± 286 ng·h/mL; Cmax ([2]; 200 mg, 200 mg QD, Day 1): 152 ± 68 ng/mL; half-life ([2]; 200 mg, 200 mg QD, Day 1): 5.9 ± 3.6 h; Tmax ([2]; 200 mg, 200 mg QD, Day 1, Mean (Min, Max)): 4.7 h; AUC(0-t) ([2]; 200 mg, 200 mg QD, Day 1, read-out: AUC0-12): 707 ± 191 ng·h/mL; AUC(0-t) ([2]; 200 mg, 200 mg QD, Day 1, read-out: AUC0-t): 868 ± 220 ng·h/mL; half-life ([2]; 200 mg, 200 mg QD, Day 10): 5.9 ± 1 h; AUC(0-t) ([2]; 200 mg, 200 mg QD, Day 10, read-out: AUC0-12): 1220 ± 362 ng·h/mL; AUC(0-t) ([2]; 200 mg, 200 mg QD, Day 10, read-out: AUC0-t): 2050 ± 819 ng·h/mL; Cmax ([2]; 200 mg, 200 mg QD, Day 10 steady state): 198 ± 87 ng/mL; Tmax ([2]; 200 mg, 200 mg QD, Day 10 steady state, Mean (Min, Max)): 3.7 h; change of maximal exposure (Cmax) from Day 1 to Day 10 ([2]; multiple dosing, all regimens): generally increased; increase of overall exposure (AUCt) on Day 10 compared to Day 1 ([2]; multiple dosing, all regimens): 1.5-3.0 fold; range of mean t1/2 independent of dose or regimen on each study day ([2]; multiple dosing, all regimens): ≤ 2 fold
